pEC50: −log10 of the molar value.
Tests used:
[1] = target: human GLP-1R (Homo sapiens, UniProt P43220, G168S); experiment: CHO GLP-1R Clone H6 cAMP HTRF agonist assay (Assay 1, high receptor density); assay type: cell-based; conditions: for pEC50: CHO GLP-1R clone H6, cAMP HTRF, geometric mean; for Emax: CHO GLP-1R clone H6, arithmetic mean, relative to saturating GLP-1 (1 μM), read-out: Assay 1 Emax (%)
Procedure, shortened: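 From replicate determinations, mean EC50 (geometric) and mean Emax (arithmetic) were derived and expressed to two significant figures.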

[2] = target: human GLP-1R (Homo sapiens, UniProt P43220, L260F); experiment: CHO GLP-1R Clone C6 cAMP HTRF agonist assay (Assay 2, low receptor density); assay type: cell-based; conditions: for pEC50: CHO GLP-1R clone C6, cAMP HTRF, geometric mean; for Emax: CHO GLP-1R clone C6, arithmetic mean, relative to saturating GLP-1 (1 μM)
Sequence of human GLP-1R (Homo sapiens, UniProt P43220, L260F) (P43220 24-463 L260F): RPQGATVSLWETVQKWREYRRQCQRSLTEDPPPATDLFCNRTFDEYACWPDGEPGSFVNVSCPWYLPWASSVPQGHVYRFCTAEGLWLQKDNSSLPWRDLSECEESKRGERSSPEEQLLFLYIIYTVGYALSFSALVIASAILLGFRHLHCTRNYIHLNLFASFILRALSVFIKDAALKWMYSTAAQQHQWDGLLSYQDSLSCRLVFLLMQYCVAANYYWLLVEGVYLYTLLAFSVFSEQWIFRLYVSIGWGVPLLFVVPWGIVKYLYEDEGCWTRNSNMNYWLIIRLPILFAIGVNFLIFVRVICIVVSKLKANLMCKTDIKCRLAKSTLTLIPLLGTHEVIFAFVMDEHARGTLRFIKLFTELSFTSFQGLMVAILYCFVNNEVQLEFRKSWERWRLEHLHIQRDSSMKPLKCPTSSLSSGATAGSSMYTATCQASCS
Excerpt: In Table 5 and Table 6, assay data are presented to two (2) significant figures as the geometric mean (EC50s) and arithmetic mean (Emax) based on the number of replicates listed (Number). A blank cell means there was no data for that Example or the Emax was not calculated.

Sequence of human GLP-1R (Homo sapiens, UniProt P43220, G168S) (P43220 24-463 G168S): as the sequence (P43220 24-463 L260F) above, with G145S, F237L counted along it

| Compound | pEC50 [1] | Emax [1] [%] | pEC50 [2] | Emax [2] [%] |
| --- | --- | --- | --- | --- |
| COCCn1cnnc1Cn1c(CN2CCC(c3cccc(OCc4ccc(Cl)cc4F)n3)CC2)nc2ccc(C(=O)O)cc21 [Compound 294B, 2-[(4-{6-[(4-chloro-2-fluorobenzyl)oxy]pyridin-2-yl}piperidin-1-yl)methyl]-1-{[4-(2-methoxyethyl)-4H-1,2,4-triazol-3-yl]methyl}-1H-benzimidazole-6-carboxylic acid] | 7.14 | 76 | 5.82 | 81 |
| O=C(O)c1ccc2nc(CN3CCC(c4cccc(OCc5ccc(Cl)cc5F)n4)CC3)n(CCN3CCOC3=O)c2c1 [Compound 295B, 2-[(4-{6-[(4-chloro-2-fluorobenzyl)oxy]pyridin-2-yl}piperidin-1-yl)methyl]-1-[2-(2-oxo-1,3-oxazolidin-3-yl)ethyl]-1H-benzimidazole-6-carboxylic acid] | 7.06 |  | 5.51 | 110 |
| Cn1nccc1Cn1c(CN2CCC(c3cccc(OCc4ccc(Cl)cc4F)n3)CC2)nc2ccc(C(=O)O)cc21 [Compound 296B, 2-[(4-{6-[(4-chloro-2-fluorobenzyl)oxy]pyridin-2-yl}piperidin-1-yl)methyl]-1-[(1-methyl-1H-pyrazol-5-yl)methyl]-1H-benzimidazole-6-carboxylic acid] | 7.02 | 86 | 5.85 | 94 |
| COC(C)(C)Cn1c(CN2CCC(c3cccc(OCc4ccc(Cl)cc4F)n3)CC2)nc2ccc(C(=O)O)cc21 [Compound 297B, 2-[(4-{6-[(4-chloro-2-fluorobenzyl)oxy]pyridin-2-yl}piperidin-1-yl)methyl]-1-(2-methoxy-2-methylpropyl)-1H-benzimidazole-6-carboxylic acid] | 6.96 | 70 | 5.46 | 95 |
| O=C(O)c1ccc2nc(CN3CCC(c4cccc(OCc5ccc(Cl)cc5F)n4)CC3)n(Cc3c[nH]nn3)c2c1 [Compound 298B, 2-[(4-{6-[(4-chloro-2-fluorobenzyl)oxy]pyridin-2-yl}piperidin-1-yl)methyl]-1-(1H-1,2,3-triazol-4-ylmethyl)-1H-benzimidazole-6-carboxylic acid] | 6.96 | 74 | 5.57 |  |
| O=C(O)c1ccc2nc(CN3CCC(c4cccc(OCc5ccc(Cl)cc5F)n4)CC3)n(Cc3cc[nH]n3)c2c1 [Compound 299B, 2-[(4-{6-[(4-chloro-2-fluorobenzyl)oxy]pyridin-2-yl}piperidin-1-yl)methyl]-1-(1H-pyrazol-3-ylmethyl)-1H-benzimidazole-6-carboxylic acid] | 6.96 | 79 | 5.66 |  |
| O=C(O)c1ccc2nc(CN3CCC(c4cccc(OCc5ccc(Cl)cc5F)n4)CC3)n(Cc3nnc[nH]3)c2c1 [Compound 300B, 2-[(4-{6-[(4-chloro-2-fluorobenzyl)oxy]pyridin-2-yl}piperidin-1-yl)methyl]-1-(4H-1,2,4-triazol-3-ylmethyl)-1H-benzimidazole-6-carboxylic acid] | 6.92 | 93 | 5.89 | 96 |
| O=C(O)c1ccc2nc(CN3CCC(c4cccc(OCc5ccc(Cl)cc5F)n4)CC3)n(C3CCOC3)c2c1 (stereo not drawn) [Compound 301B, 2-[(4-{6-[(4-chloro-2-fluorobenzyl)oxy]pyridin-2-yl}piperidin-1-yl)methyl]-1-(tetrahydrofuran-3-yl)-1H-benzimidazole-6-carboxylic acid] | 6.92 | 80 | 5.82 | 92 |
| Cc1ccn(CCn2c(CN3CCC(c4cccc(OCc5ccc(Cl)cc5F)n4)CC3)nc3ccc(C(=O)O)cc32)n1 [Compound 306B, 2-[(4-{6-[(4-chloro-2-fluorobenzyl)oxy]pyridin-2-yl}piperidin-1-yl)methyl]-1-[2-(3-methyl-1H-pyrazol-1-yl)ethyl]-1H-benzimidazole-6-carboxylic acid] | 6.72 | 80 | 5.44 | 93 |
| O=C(O)c1ccc2nc(CN3CCC(c4cccc(OCc5ccc(Cl)cc5F)n4)CC3)n(CCc3c[nH]cn3)c2c1 [Compound 316B, 2-[(4-{6-[(4-chloro-2-fluorobenzyl)oxy]pyridin-2-yl}piperidin-1-yl)methyl]-1-[2-(1H-imidazol-4-yl)ethyl]-1H-benzimidazole-6-carboxylic acid] | 6.35 | 71 | 5.25 | 76 |
| COC1CCN(CCn2c(CN3CCC(c4cccc(OCc5ccc(Cl)cc5F)n4)CC3)nc3ccc(C(=O)O)cc32)CC1 [Compound 331B, 2-[(4-{6-[(4-chloro-2-fluorobenzyl)oxy]pyridin-2-yl}piperidin-1-yl)methyl]-1-[2-(4-methoxypiperidin-1-yl)ethyl]-1H-benzimidazole-6-carboxylic acid] | 7.20 | 78 | 5.70 | 82 |

Stronger by pEC50 [1], values ahead:

| pEC50 [1] | Emax [1] [%] | pEC50 [2] | Emax [2] [%] | Compound |
| --- | --- | --- | --- | --- |
| 7.55 | 80 | 6.35 | 89 | COCCN1CCC(Cn2c(CN3CCC(c4cccc(OCc5ccc(Cl)cc5F)n4)CC3)nc3ccc(C(=O)O)cc32)CC1 [Compound 287B, 2-[(4-{6-[(4-chloro-2-fluorobenzyl)oxy]pyridin-2-yl}piperidin-1-yl)methyl]-1-{[1-(2-methoxyethyl)piperidin-4-yl]methyl}-1H-benzimidazole-6-carboxylic acid] |
| 7.52 | 77 | 6.44 | 89 | COCCN1CCCC(Cn2c(CN3CCC(c4cccc(OCc5ccc(Cl)cc5F)n4)CC3)nc3ccc(C(=O)O)cc32)C1 (stereo not drawn) [Compound 288B, 2-[(4-{6-[(4-chloro-2-fluorobenzyl)oxy]pyridin-2-yl}piperidin-1-yl)methyl]-1-{[1-(2-methoxyethyl)piperidin-3-yl]methyl}-1H-benzimidazole-6-carboxylic acid] |
| 7.44 | 73 | 5.96 | 79 | CC1(Cn2c(CN3CCC(c4cccc(OCc5ccc(Cl)cc5F)n4)CC3)nc3ccc(C(=O)O)cc32)CCOC1 (stereo not drawn) [Compound 289B, 2-[(4-{6-[(4-chloro-2-fluorobenzyl)oxy]pyridin-2-yl}piperidin-1-yl)methyl]-1-[(3-methyltetrahydrofuran-3-yl)methyl]-1H-benzimidazole-6-carboxylic acid] |
| 7.36 | 72 | 6.31 | 98 | O=C(O)c1ccc2nc(CN3CCC(c4cccc(OCc5ccc(Cl)cc5F)n4)CC3)n(Cc3cn[nH]c3)c2c1 [Compound 290B, 2-[(4-{6-[(4-chloro-2-fluorobenzyl)oxy]pyridin-2-yl}piperidin-1-yl)methyl]-1-(1H-pyrazol-4-ylmethyl)-1H-benzimidazole-6-carboxylic acid] |
| 7.27 | 77 | 5.92 | 82 | O=C(O)c1ccc2nc(CN3CCC(c4cccc(OCc5ccc(Cl)cc5F)n4)CC3)n(CC3CCC3)c2c1 [Compound 291B, 2-[(4-{6-[(4-chloro-2-fluorobenzyl)oxy]pyridin-2-yl}piperidin-1-yl)methyl]-1-(cyclobutylmethyl)-1H-benzimidazole-6-carboxylic acid] |
| 7.26 | 71 | 5.77 | 99 | O=C(O)c1ccc2nc(CN3CCC(c4cccc(OCc5ccc(Cl)cc5F)n4)CC3)n(CCn3cncn3)c2c1 [Compound 292B, 2-[(4-{6-[(4-chloro-2-fluorobenzyl)oxy]pyridin-2-yl}piperidin-1-yl)methyl]-1-[2-(1H-1,2,4-triazol-1-yl)ethyl]-1H-benzimidazole-6-carboxylic acid] |
| 7.25 | 81 | 6.23 | 85 | CCOC(C)Cn1c(CN2CCC(c3cccc(OCc4ccc(Cl)cc4F)n3)CC2)nc2ccc(C(=O)O)cc21 (stereo not drawn) [Compound 293B, 2-[(4-{6-[(4-chloro-2-fluorobenzyl)oxy]pyridin-2-yl}piperidin-1-yl)methyl]-1-(2-ethoxypropyl)-1H-benzimidazole-6-carboxylic acid] |
| 8.28 | 76 | 7.68 | 84 | Cc1cc(C)n(CCn2c(CN3CCC(c4cccc(OCc5ccc(Cl)cc5F)n4)CC3)nc3ccc(C(=O)O)cc32)n1 [Compound 332B, 2-[(4-{6-[(4-chloro-2-fluorobenzyl)oxy]pyridin-2-yl}piperidin-1-yl)methyl]-1-[2-(3,5-dimethyl-1H-pyrazol-1-yl)ethyl]-1H-benzimidazole-6-carboxylic acid] |
| 9.15 | 86 | 8.00 | 89 | Cc1cc(Cn2c(CN3CCC(c4cccc(OCc5ccc(Cl)cc5F)n4)CC3)nc3ccc(C(=O)O)cc32)[nH]n1 [Compound 333B, 2-[(4-{6-[(4-chloro-2-fluorobenzyl)oxy]pyridin-2-yl}piperidin-1-yl)methyl]-1-[(3-methyl-1H-pyrazol-5-yl)methyl]-1H-benzimidazole-6-carboxylic acid] |
| 7.52 | 73 | 6.24 | 93 | Cc1n[nH]c(Cn2c(CN3CCC(c4cccc(OCc5ccc(Cl)cc5F)n4)CC3)nc3ccc(C(=O)O)cc32)n1 [Compound 334B, 2-[(4-{6-[(4-chloro-2-fluorobenzyl)oxy]pyridin-2-yl}piperidin-1-yl)methyl]-1-[(3-methyl-1H-1,2,4-triazol-5-yl)methyl]-1H-benzimidazole-6-carboxylic acid] |

Reference: US20250235460A1, “COMBINATION THERAPY USING GLUCOSE-DEPENDENT INSULINOTROPIC POLYPEPTIDE RECEPTOR ANTAGONIST COMPOUNDS AND GLP-1 RECEPTOR AGONIST COMPOUNDS” (Pfizer Inc., priority 2024, published 2025)
